In US8962664B2, “Selective glycosidase inhibitors and uses thereof” (Simon Fraser University, priority 2006, dated 2015):
“Also recorded” adds a separate entry of the source.

Assays:
[1] = Nine-month repeat dose toxicology study in mice: urinalysis; assay type: in vivo, wild-type JNPL3 mice; conditions: mice dosed orally nine months, week 40, pooled urine; F2: NAG-Bt 100 then 1000 mg/kg/day (n = 2); F1: NAG-Bt 100 then NAG-AE 500 mg/kg/day (n = 3)
Experimental: (§1) The toxicological effects of repeated oral administration of (3aR,5R,6S,7R,7aR)-5-(hydroxymethyl)-2-propyl-5,6,7,7a-tetrahydro-3aH-pyrano[3,2-d]thiazole-6,7-diol (NAG-Bt) and (3aR,5R,6S,7R,7aR)-2-(ethylamino)-5-(hydroxymethyl)-5,6,7,7a-tetrahydro-3aH-pyrano[3,2-d]thiazole-6,7-diol (NAG-AE) to wild-type JNPL3 mice over nine months was measured. All animals were obtained from Taconic Farms, Inc. (model number 001638-W-F), and were 10-12 weeks of age at delivery, designated “week 1” of the study. In week 1, the mice were split into three groups: Group E received vehicle alone throughout the study; Group F1 received 100 mg/kg/day NAG-Bt in their food from week 1 to week 15, then were switched to 500 mg/kg/day NAG-AE in their drinking water from week 16 to week 40; Group F2 received 100 mg/kg/day NAG-Bt in their food from week 1 to week 15 then were switched to 1000 mg/kg/day NAG-Bt in their drinking water from week 16 to week 40. […] In week 40, blood and urine samples were collected from animals in each group; the urine samples for animals in each group were pooled prior to analysis, while the blood samples were analyzed individually.

[2] = test system: tau phosphorylation and NFT formation; assay: Reduction of NFT formation in transgenic P301L JNPL3 mice; assay type: in vivo; conditions: oral, Group B NAG-Bt 100 then 1000 mg/kg/day; for protein O-GlcNAc modification in hippocampal brain sections: Group D NAG-AE 500 mg/kg/day weeks 16 to 32, anti-OGlcNAc staining; for tau phosphorylation and NFT formation in hippocampal brain sections: Group D NAG-AE 500 mg/kg/day weeks 16 to 32, anti-phospho Tau-Ser404 staining, vs untreated transgenic Group A
Experimental: Animal Dosing and Tissue Collection. Hemizygous transgenic female JNPL3 mice overexpressing human mutant tau protein (P301L) and wild type control mice were obtained from Taconic Farms, Inc. (model numbers 001638-T-F and 001638-W-F, respectively). The mice were 10-12 weeks of age at delivery, designated “week 1” of the study. In week 1, the mice were split into four groups: Group A (transgenic mice) received vehicle alone throughout the study; Group B (transgenic mice) received 100 mg/kg/day NAG-Bt in their food from week 1 to week 15, then were switched to 1000 mg/kg/day NAG-Bt in their drinking water from week 16 to week 32; Group D (transgenic mice) received vehicle alone from weeks 1 to 15, and then 500 mg/kg/day NAG-AE in their drinking water from weeks 16 to 32; Group E (wild-type) received vehicle alone throughout the study. In week 32, three animals per group were sacrificed and tissues were collected. Transgenic mice and controls were sacrificed using a CO2 chamber. About 45 seconds after they stopped breathing, they were perfused transcardially with 30 mL of 0.9% NaCl buffer followed by 30 mL of 4% paraformaldehyde (w/v in 1× phosphate-buffered saline, PBS, pH 7.4). The brains were then carefully dissected and post-fixed in 4% parformaldehyde before being cryoprotected in 20% sucrose (w/v in 1×PBS) for 24 hours at 4° C.
Cryostat sectioning. The brains were then mounted with optimal cutting temperature (OCT) medium (Tissue Tek) and sectioned sagittally on a Reichert-Jung Cryocut 1800 (Leica) using Feather microtome blades (Tissue Tek) at 50 μm and placed in 1×PBS for further processing. The cryostat temperature was set at −17° C. to −19° C.
Immunohistochemical Staining. Free-floating 50 μm sagittal sections (lateral about 0.6 mm from midline, Mouse Brain in Stereotaxic Coordinates, second edition, by George Paxinos and Leith B. J. Franklin) were permeabilized with 1×PBS containing 0.3% Triton X-100 for 15 min. After blocking with 10% goat serum and 2.5% BSA for 1 h at room temperature, sections were incubated with specific antibodies overnight at 4° C. (primary antibodies: anti-OGlcNAc, Covance; anti-phospho Tau-ser404, Santa Cruz). The sections then were washed three times with 0.3% Triton X-100 in PBS for 15 min each and incubated with specific secondary antibody conjugated with Cy3 or FITC for 1.5 h at room temperature in the dark. After several washes in 1×PBS, sections were mounted on slides and air-dried in the dark. Once dry, Vectashield Mounting Medium (Vector Laboratories, Inc.) was added to the slide before applying coverslips. Coverslips were sealed with clear nail enamel and slides were stored in dark at 4° C. For negative control staining, sections were incubated without primary antibodies.
Imaging. […]

[3] = Nine-month repeat dose toxicology study in mice: hematology (CBC) and serum chemistry; assay type: in vivo, wild-type JNPL3 mice; conditions: oral, nine months
Experimental: as §1

[4] = Nine-month repeat dose toxicology study in mice: general observations; assay type: in vivo, wild-type JNPL3 mice; conditions: oral, nine months, comparatively high levels
Experimental: as §1

Compound	Urine Appear [1]	Urine Bilirubin [1]	Urine Cocci [1]	Urine Color [1]	Urine Creatinine [1]	Urine Epith [1]	Urine Glucose [1]	Urine Ketones [1]	Urine Protein [1]	Urine RBC [1]	Urine Rods [1]	Urine Sp. Grv. [1]	Urine Urobil [1]	Urine WBC [1]	Urine pH [1]	protein O-GlcNAc modification in hippocampal brain sections [2]	tau phosphorylation and NFT formation in hippocampal brain sections [2]	changes in ALT, AST, or sorbitol dehydrogenase (liver toxicity) [3]	toxicological consequences of long-term dosing [4]	Urine Blood [1]
CCCC1=N[C@@H]2[C@@H](O)[C@H](O)[C@@H](CO)O[C@@H]2S1 [NAG-Bt, (3aR,5R,6S,7R,7aR)-5-(hydroxymethyl)-2-propyl-5,6,7,7a-tetrahydro-3aH-pyrano[3,2-d]thiazole-6,7-diol]	Clear	Neg	Neg	Yellow	7790.9	Few	Neg	Neg	Neg	Neg	Neg	1.05	Normal	Neg	5	dramatically elevated	dramatically reduced; also recorded: significantly decreased	no changes	no serious toxicological consequences	
CCNC1=N[C@@H]2[C@@H](O)[C@H](O)[C@@H](CO)O[C@@H]2S1 [NAG-AE, (3aR,5R,6S,7R,7aR)-2-(ethylamino)-5-(hydroxymethyl)-5,6,7,7a-tetrahydro-3aH-pyrano[3,2-d]thiazole-6,7-diol]	Slcloudy	Neg	Neg	Yellow	3105.4	Few	Neg	Neg	Neg	Neg	Neg	1.039	Normal	Neg	6	dramatically elevated	dramatically reduced; also recorded: significantly decreased	no changes	no serious toxicological consequences	Neg
